This experiment addresses T1, recombinant human GluN1/GluN2A receptor (Homo sapiens, UniProt Q05586+Q12879).
T1 construct: expressed in transfected cells; host or cells: HEK293, tetracycline-inducible expression
Put plainly: Whole-cell patch clamp of mammalian cells (Syncropatch 384i), NMDA modulation. Type of experiment: cell-based. In outline:
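Modulation read as fold rise in peak current, (Icomp/Icontrol)−1, from 8 concentrations with ≥2 wells each, four-parameter fit. Compound pre-incubated 120 s then co-applied with 1 μM glutamate plus 100 μM glycine; tetracycline-inducible HEK293 GluN1/GluN2A cells clamped at −80 mV.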
A general note: Patch clamp records ionic current or voltage across a cell membrane.

Where [1] appears, read: Table B-2, HEK293 cells, human GluN1/GluN2A, glutamate 1 μM / glycine 100 μM, -80 mV, peak amplitude increase.
Where [2] appears, read: Table B-2, HEK293 cells, human GluN1/GluN2A, glutamate 1 μM / glycine 100 μM, -80 mV, peak amplitude increase, read-out: EC50.
Setting [3] is: Table C-2, HEK293 cells, human GluN1/GluN2A, glutamate 1 μM / glycine 100 μM, -80 mV, peak amplitude increase.
The mark [4] stands for this setting: Table C-2, HEK293 cells, human GluN1/GluN2A, glutamate 1 μM / glycine 100 μM, -80 mV, peak amplitude increase, read-out: EC50.

Where two headings read alike, the source gives them in different places.

Emax and EC50 data for 18 molecules are collected here from patent US20240368214A1, “POSITIVE NMDA-MODULATING COMPOUNDS AND METHODS OF USE THEREOF” (SAGE THERAPEUTICS, INC., priority 2021, published 2024).

T1 sequence (Q12879 23-1464, other chains not shown): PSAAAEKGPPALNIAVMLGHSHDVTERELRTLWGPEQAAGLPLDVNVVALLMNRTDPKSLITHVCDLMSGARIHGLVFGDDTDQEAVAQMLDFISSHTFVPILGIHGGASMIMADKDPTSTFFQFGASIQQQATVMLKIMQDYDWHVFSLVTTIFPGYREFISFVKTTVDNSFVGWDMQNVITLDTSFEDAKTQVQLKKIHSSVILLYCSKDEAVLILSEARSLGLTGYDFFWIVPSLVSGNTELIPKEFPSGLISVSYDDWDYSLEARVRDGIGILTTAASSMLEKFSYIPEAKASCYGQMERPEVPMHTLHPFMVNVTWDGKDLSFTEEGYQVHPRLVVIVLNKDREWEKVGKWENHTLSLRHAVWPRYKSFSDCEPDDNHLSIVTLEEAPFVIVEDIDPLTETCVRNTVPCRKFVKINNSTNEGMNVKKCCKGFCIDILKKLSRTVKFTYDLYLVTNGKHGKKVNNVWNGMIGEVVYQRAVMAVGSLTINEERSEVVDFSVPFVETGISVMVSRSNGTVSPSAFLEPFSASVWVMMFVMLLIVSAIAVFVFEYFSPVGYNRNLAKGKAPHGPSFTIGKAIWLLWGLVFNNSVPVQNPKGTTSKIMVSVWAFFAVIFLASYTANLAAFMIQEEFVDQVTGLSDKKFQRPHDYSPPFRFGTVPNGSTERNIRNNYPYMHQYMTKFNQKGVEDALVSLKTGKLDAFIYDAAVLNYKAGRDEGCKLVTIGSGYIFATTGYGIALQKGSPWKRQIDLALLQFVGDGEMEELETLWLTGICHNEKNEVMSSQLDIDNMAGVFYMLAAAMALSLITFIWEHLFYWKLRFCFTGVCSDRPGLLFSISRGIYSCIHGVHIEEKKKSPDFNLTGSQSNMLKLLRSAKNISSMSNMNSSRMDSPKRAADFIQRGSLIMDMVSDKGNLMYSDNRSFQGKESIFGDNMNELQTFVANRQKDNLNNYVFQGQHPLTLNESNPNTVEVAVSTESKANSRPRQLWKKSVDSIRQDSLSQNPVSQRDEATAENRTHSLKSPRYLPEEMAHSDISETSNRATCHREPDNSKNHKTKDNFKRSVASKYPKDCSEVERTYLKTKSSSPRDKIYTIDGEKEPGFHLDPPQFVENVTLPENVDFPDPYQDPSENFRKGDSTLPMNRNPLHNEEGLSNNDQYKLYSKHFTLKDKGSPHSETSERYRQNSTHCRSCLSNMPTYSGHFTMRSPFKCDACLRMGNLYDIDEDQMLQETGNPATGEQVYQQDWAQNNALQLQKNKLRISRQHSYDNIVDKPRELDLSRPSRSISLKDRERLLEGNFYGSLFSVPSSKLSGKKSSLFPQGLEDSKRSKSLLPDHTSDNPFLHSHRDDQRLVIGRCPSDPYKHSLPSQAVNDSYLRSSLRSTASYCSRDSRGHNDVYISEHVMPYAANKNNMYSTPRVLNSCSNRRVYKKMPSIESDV

With `CC[C@]1(O)CC[C@@]2(C)C(=CC[C@H]3[C@@H]4[C@@H]5C[C@@H]5[C@H]([C@H](C)CCCC(C)(C)O)[C@@]4(C)CC[C@@H]32)C1` [Compound B-20, (2S,4aR,4bS,6aR,7S,7aS,8aR,8bS,8cR)-2-ethyl-7-((R)-6-hydroxy-6-methylheptan-2-yl)-4a,6a-dimethyl-1,2,3,4,4a,4b,5,6,6a,7,7a,8,8a,8b,8c,9-hexadecahydrocyclopropa[4,5]cyclopenta[1,2-a]phenanthren-2-ol], the Emax (in general, the size of the effect at its maximum, as opposed to the concentration needed) under setting [1] is 100 to 200%. The concentration for a half-maximal effect (EC50) (usually the midpoint of the concentration-response curve) under setting [2] was 1 to 100 nM. In the case of `CC[C@]1(O)CC[C@@]2(C)C(=CC[C@H]3[C@@H]4[C@H](C)C[C@H]([C@H](C)CCCC(C)(C)O)[C@@]4(C)CC[C@@H]32)C1` [Compound B-21, (3S,8R,9S,10R,13R,14S,15R,17R)-3-ethyl-17-((R)-6-hydroxy-6-methylheptan-2-yl)-10,13,15-trimethyl-2,3,4,7,8,9,10,11,12,13,14,15,16,17-tetradecahydro-1H-cyclopenta[a]phenanthren-3-ol], the EC50 under setting [2] fell in the range of 1 to 100 nM. In the case of `CC[C@]1(O)CC[C@@]2(C)[C@@H](CC[C@@H]3[C@@H]2CC[C@]2(C)[C@@H]([C@H](C)CCCC(C)(C)O)[C@H](C)C[C@@H]32)C1` [Compound B-22, (3S,5S,8R,9S,10S,13S,14S,16R,17S)-3-ethyl-17-((R)-6-hydroxy-6-methylheptan-2-yl)-10,13,16-trimethylhexadecahydro-1H-cyclopenta[a]phenanthren-3-ol], the Emax under setting [1] is over 200%. The EC50 under setting [2] lay in the range of 100 to 500 nM. For `CC[C@]1(O)CC[C@@]2(C)[C@@H](CC[C@@H]3[C@@H]2CC[C@]2(C)[C@@H]([C@H](C)CC[C@H](O)C(C)C)[C@H](C)C[C@@H]32)C1` [Compound B-23, (3S,5S,8R,9S,10S,13S,14S,16R,17S)-3-ethyl-17-((2R,5S)-5-hydroxy-6-methylheptan-2-yl)-10,13,16-trimethylhexadecahydro-1H-cyclopenta[a]phenanthren-3-ol], in that order: over 200% and 1 to 100 nM.

Regarding `CC[C@]1(O)CC[C@@]2(C)[C@@H](CC[C@@H]3[C@@H]2CC[C@]2(C)[C@@H]([C@H](C)CC[C@@H](O)C(C)C)[C@H](C)C[C@@H]32)C1` [Compound B-24, (3S,5S,8R,9S,10S,13S,14S,16R,17S)-3-ethyl-17-((2R,5R)-5-hydroxy-6-methylheptan-2-yl)-10,13,16-trimethylhexadecahydro-1H-cyclopenta[a]phenanthren-3-ol], the maximum response (Emax) under setting [1] was over 200%. Further, the half-maximal effective concentration (EC50) under setting [2] fell in the range of 100 to 500 nM. Take `CC[C@]1(O)CC[C@@]2(C)[C@@H](CC[C@@H]3[C@@H]2CC[C@]2(C)[C@@H]([C@H](C)CC[C@@H](O)C(C)(C)C#N)CC[C@@H]32)C1` [Compound C-1, (3R,6R)-6-((3S,5S,8R,9S,10S,13R,14S,17R)-3-ethyl-3-hydroxy-10,13-dimethylhexadecahydro-1H-cyclopenta[a]phenanthren-17-yl)-3-hydroxy-2,2-dimethylheptanenitrile]: the Emax under setting [3] was over 200%. In addition, under setting [4], the concentration giving a half-maximal response (EC50) was in the range of 1 to 100 nM. The matching figures for `CC[C@]1(O)CC[C@@]2(C)[C@@H](CC[C@@H]3[C@@H]2CC[C@]2(C)[C@@H]([C@H](C)CC[C@H](O)C(C)(C)C#N)CC[C@@H]32)C1` [Compound C-2, (3S,6R)-6-((3S,5S,8R,9S,10S,13R,14S,17R)-3-ethyl-3-hydroxy-10,13-dimethylhexadecahydro-1H-cyclopenta[a]phenanthren-17-yl)-3-hydroxy-2,2-dimethylheptanenitrile]: 100 to 200% and 1 to 100 nM. For `CC[C@]1(O)CC[C@@]2(C)[C@@H](CC[C@@H]3[C@@H]2CC[C@]2(C)[C@@H]([C@H](C)CC[C@@H](O)C4(C#N)CC4)CC[C@@H]32)C1` [Compound C-3, 1-((1R,4R)-4-((3S,5S,8R,9S,10S,13R,14S,17R)-3-ethyl-3-hydroxy-10,13-dimethylhexadecahydro-1H-cyclopenta[a]phenanthren-17-yl)-1-hydroxypentyl)cyclopropanecarbonitrile], in that order: over 200% and 1 to 100 nM. The matching figures for `CC[C@]1(O)CC[C@@]2(C)[C@@H](CC[C@@H]3[C@@H]2CC[C@]2(C)[C@@H]([C@H](C)CC[C@H](O)C4(C#N)CC4)CC[C@@H]32)C1` [Compound C-4, 1-((1S,4R)-4-((3S,5S,8R,9S,10S,13R,14S,17R)-3-ethyl-3-hydroxy-10,13-dimethylhexadecahydro-1H-cyclopenta[a]phenanthren-17-yl)-1-hydroxypentyl)cyclopropanecarbonitrile]: under 100% and 100 to 500 nM. For `CC[C@H](C#N)[C@H](O)CC[C@@H](C)[C@H]1CC[C@H]2[C@@H]3CC[C@H]4C[C@](O)(CC)CC[C@]4(C)[C@H]3CC[C@]12C` [Compound C-5, (2R,3R,6R)-2-ethyl-6-((3S,5S,8R,9S,10S,13R,14S,17R)-3-ethyl-3-hydroxy-10,13-dimethylhexadecahydro-1H-cyclopenta[a]phenanthren-17-yl)-3-hydroxyheptanenitrile], the Emax under setting [3] is over 200%. Besides, the EC50 under setting [4] was in the range of 1 to 100 nM. The matching figures for `CC[C@H](C#N)[C@@H](O)CC[C@@H](C)[C@H]1CC[C@H]2[C@@H]3CC[C@H]4C[C@](O)(CC)CC[C@]4(C)[C@H]3CC[C@]12C` [Compound C-6, (2R,3S,6R)-2-ethyl-6-((3S,5S,8R,9S,10S,13R,14S,17R)-3-ethyl-3-hydroxy-10,13-dimethylhexadecahydro-1H-cyclopenta[a]phenanthren-17-yl)-3-hydroxyheptanenitrile]: 100 to 200% and 100 to 500 nM. For `CC[C@@H](C#N)[C@H](O)CC[C@@H](C)[C@H]1CC[C@H]2[C@@H]3CC[C@H]4C[C@](O)(CC)CC[C@]4(C)[C@H]3CC[C@]12C` [Compound C-7, (2S,3R,6R)-2-ethyl-6-((3S,5S,8R,9S,10S,13R,14S,17R)-3-ethyl-3-hydroxy-10,13-dimethylhexadecahydro-1H-cyclopenta[a]phenanthren-17-yl)-3-hydroxyheptanenitrile], in that order: over 200% and 1 to 100 nM.

`CC[C@@H](C#N)[C@@H](O)CC[C@@H](C)[C@H]1CC[C@H]2[C@@H]3CC[C@H]4C[C@](O)(CC)CC[C@]4(C)[C@H]3CC[C@]12C` [Compound C-8, (25,3S,6R)-2-ethyl-6-((3S,5S,8R,9S,10S,13R,14S,17R)-3-ethyl-3-hydroxy-10,13-dimethylhexadecahydro-1H-cyclopenta[a]phenanthren-17-yl)-3-hydroxyheptanenitrile]: the maximal effect (Emax) under setting [3] is under 100%. In addition, the EC50 under setting [4] is 1 to 100 nM. The matching figures for `COC[C@]1(O)CC[C@@]2(C)[C@@H](CC[C@@H]3[C@@H]2CC[C@]2(C)[C@@H]([C@H](C)CC[C@@H](O)C(C)(C)C#N)CC[C@@H]32)C1` [Compound C-9, (3R,6R)-3-hydroxy-6-((3S,5S,8R,9S,10S,13R,14S,17R)-3-hydroxy-3-(methoxymethyl)-10,13-dimethylhexadecahydro-1H-cyclopenta[a]phenanthren-17-yl)-2,2-dimethylheptanenitrile]: under 100% and 1 to 100 nM. As to `CC[C@]1(O)CC[C@@]2(C)[C@@H](CC[C@@H]3[C@@H]2CC[C@]2(C)[C@@H]([C@H](C)CC[C@H](O)CC#N)CC[C@@H]32)C1` [Compound C-10, (3S,6R)-6-((3S,5S,8R,9S,10S,13R,14S,17R)-3-ethyl-3-hydroxy-10,13-dimethylhexadecahydro-1H-cyclopenta[a]phenanthren-17-yl)-3-hydroxyheptanenitrile], the Emax under setting [3] is under 100%. For the same molecule, the 50% effective concentration (EC50) under setting [4] lay within 100 to 500 nM. For `CC[C@]1(O)CC[C@@]2(C)[C@@H](CC[C@@H]3[C@@H]2CC[C@]2(C)[C@@H]([C@H](C)CC[C@@H](O)CC#N)CC[C@@H]32)C1` [Compound C-11, (3R,6R)-6-((3S,5S,8R,9S,10S,13R,14S,17R)-3-ethyl-3-hydroxy-10,13-dimethylhexadecahydro-1H-cyclopenta[a]phenanthren-17-yl)-3-hydroxyheptanenitrile], in that order: 100 to 200% and 1 to 100 nM. On to `CC[C@]1(O)CC[C@@]2(C)C(=CC[C@H]3[C@@H]4CC[C@H]([C@H](C)CC[C@@H](O)C(C)(C)C#N)[C@@]4(C)CC[C@@H]32)C1` [Compound C-12], for which the EC50 lay within 1 to 100 nM. Besides, under setting [3], the Emax is over 200%. Consider `CC[C@]1(O)CC[C@@]2(C)C(=CC[C@H]3[C@@H]4CC[C@H]([C@H](C)CC[C@H](O)C(C)(C)C#N)[C@@]4(C)CC[C@@H]32)C1` [Compound C-13, (3S,6R)-6-((3S,8S,9S,10R,13R,14S,17R)-3-ethyl-3-hydroxy-10,13-dimethyl-2,3,4,7,8,9,10,11,12,13,14,15,16,17-tetradecahydro-1H-cyclopenta[a]phenanthren-17-yl)-3-hydroxy-2,2-dimethylheptanenitrile], for which, under setting [3], the maximal response (Emax) fell in the range of 100 to 200%. The concentration giving a half-maximal response (EC50) under setting [4] was 1 to 100 nM.
